Source: PMC11952234, “Functional profiling of synthetic camel milk-derived peptides with implication in glucose transport and diabetes” (PLOS One, 2025)
Marks after values point to notes of the source that are not given here.

Tests used:
HepG2 cells = assay: Glucose uptake assay (Glucose Uptake-Glo) in HepG2 cells; format: cell-based, human; conditions: 1 hour, 37°C
Method: Glucose uptake in HepG2 cells was carried out using Glucose Uptake-Glo Assay (Promega). For this, cells seeded in a 96-well white plate (50,000 cells/well) were first washed with PBS and starved in phenol red-, glucose-, and serum-free medium (Dulbecco’s modified Eagle’s medium containing 0.01 mM HEPES, 0.3 mg/ml glutamine, 100 IU/ml penicillin, and 100 µg/ml streptomycin). […] The treatment was removed, and the cells were washed once with PBS and then incubated with 50 μL/well of freshly prepared 2-deoxyglucose (500 μM) for 10 minutes at room temperature. The uptake process was stopped and neutralized, followed by the addition of 50 μl/well of 2-deoxyglucose-6-phosphate (2DG6P) detection reagent and incubation for 15-60 minutes at room temperature. The glucose-6-phosphate dehydrogenase (G6PDH) oxidizes 2DG6P to 6-phosphodeoxygluconate (6PDG) and reduces NADP + to NADPH. The reductase uses NADPH to convert the proluciferin to luciferin, which is then used by Ultra-Glo™ recombinant luciferase to produce luminescence. This luminescence, proportional to the amount of 2-deoxyglucose transported inside the cells upon treatment, was then measured using a 0.3–1 second integration on GloMax® Discover luminometer according to Glucose Uptake-Glo™ protocol.

[1] = system: insulin receptor (IR); insulin-induced IR-Rluc/IRS1-YFP BRET in HEK293 cells; assay: BRET assay of IR activation, peptides combined with insulin; format: cell-based, human
Method: (§1) HepG2 and HEK293 cells were maintained at 37°C, 5% CO2 in complete RPMI and Dulbecco’s modified Eagle’s medium (DMEM), respectively, containing 0.3 mg/ml glutamine, 100 IU/ml penicillin, and 100 µg/ml streptomycin) supplemented with 10% fetal calf serum (Gibco, Carlsbad, CA, USA). The transient transfection in HEK293 cells was carried out in 75 cm flask containing 10^7 cells using Lipofectamine 2000 and 5 µg of IR-Rluc and 5 µg of IRS1-YFP (for BRET and phosphorylation experiments) as previously described. All assays were performed 48 hours post-transfection.
(§2) BRET technology was used for IR activation and its interaction with IRS1 as previously described. […] Following treatments, 10 μl of Coelenterazine h was added to a final concentration of 5 µ M and BRET measurements were carried out using the Tristar 2 multi-label plate reader (Berthold, Germany), allowing luminescence recording and signal integration at 480 nm and 540 nm.
For BRET, the data were normalized by taking as 100% of the maximal insulin-induced BRET signal in the vehicle and analyzed using GraphPad Prism software (San Diego, CA, USA). Statistical analyses were performed statistical significance between the different treatments and conditions as indicated in the figures and tables and their captions. […] The significance is indicated in the figures by stars (****p-value < 0.0001, ***p-value < 0.001, ** p-value < 0.01, * p-value < 0.05), and the absence of stars means non-significant (p-value > 0.05). However, the two-way ANOVA was used for multiple comparisons to determine the statistical significance between the different peptides when compared to each other in the different assays as described in the tables. In this case, the different letters indicate statistically significant effects (p-value < 0.05), while the same letters indicate no significant difference between the different treatments compared to each other.

[2] = system: IR phosphorylation (pIR-Tyr1334) in HepG2 cells; assay: IR phosphorylation by western blot in HepG2 cells; format: cell-based, human; conditions: 0.1 mg/ml peptide, 10 minutes, 37°C, 3 independent experiments
Method: (§3) Following treatment, cells were then lysed with RIPA lysis buffer and thereafter centrifuged at 12000 × g for 30 minutes. Thereafter, the extracted cell lysate proteins were quantified using the bicinchoninic acid (BCA) protein assay. To examine the phosphorylation status of IR and AKT, 30-40 μg of proteins were loaded on 10% SDS-PAGE gel followed by western blot using the following antibodies: the mouse monoclonal anti-phospho-IR (pIR-Tyr1334)(1:1000 dilution) and the mouse monoclonal anti-phospho-AKT (pAKT-S473)(1:2000 dilution) as previously described. The corresponding total proteins loaded were also analyzed in parallel using the specific antibodies against the native forms of the different proteins. Densitometry analysis of the different western blots was performed using Image Studio Version 5.2 software from LICOR (Lincoln, Nebraska, USA).

[3] = system: AKT phosphorylation (pAKT-S473) in HepG2 cells; assay: AKT phosphorylation by western blot in HepG2 cells; format: cell-based, human; conditions: 0.1 mg/ml peptide, 10 minutes, 37°C, 3 independent experiments
Method: as §3

[4] = molecular target: T1, insulin receptor (IR); interaction of IR-Rluc with IRS1-YFP in HEK293 cells (Homo sapiens, UniProt P06213); assay: BRET assay of IR activation (IR-Rluc/IRS1-YFP), single treatment, dose-response; format: cell-based; conditions: for BRET, % of the maximal response of insulin, Average: HEK293, 1 hour, minimal data set for Figure 1, average
T1 construct: expressed in transfected cells; host or cells: HEK293 cells, transient co-transfection; plasmids provided by Dr. Tarik Issad (Cochin Institute, Paris)
Method: as §1, §2
Statistical analyses were performed statistical significance between the different treatments and conditions as indicated in the figures and tables and their captions. […] The significance is indicated in the figures by stars (****p-value < 0.0001, ***p-value < 0.001, ** p-value < 0.01, * p-value < 0.05), and the absence of stars means non-significant (p-value > 0.05). However, the two-way ANOVA was used for multiple comparisons to determine the statistical significance between the different peptides when compared to each other in the different assays as described in the tables.

T1 sequence (P06213 28-758 limits assumed): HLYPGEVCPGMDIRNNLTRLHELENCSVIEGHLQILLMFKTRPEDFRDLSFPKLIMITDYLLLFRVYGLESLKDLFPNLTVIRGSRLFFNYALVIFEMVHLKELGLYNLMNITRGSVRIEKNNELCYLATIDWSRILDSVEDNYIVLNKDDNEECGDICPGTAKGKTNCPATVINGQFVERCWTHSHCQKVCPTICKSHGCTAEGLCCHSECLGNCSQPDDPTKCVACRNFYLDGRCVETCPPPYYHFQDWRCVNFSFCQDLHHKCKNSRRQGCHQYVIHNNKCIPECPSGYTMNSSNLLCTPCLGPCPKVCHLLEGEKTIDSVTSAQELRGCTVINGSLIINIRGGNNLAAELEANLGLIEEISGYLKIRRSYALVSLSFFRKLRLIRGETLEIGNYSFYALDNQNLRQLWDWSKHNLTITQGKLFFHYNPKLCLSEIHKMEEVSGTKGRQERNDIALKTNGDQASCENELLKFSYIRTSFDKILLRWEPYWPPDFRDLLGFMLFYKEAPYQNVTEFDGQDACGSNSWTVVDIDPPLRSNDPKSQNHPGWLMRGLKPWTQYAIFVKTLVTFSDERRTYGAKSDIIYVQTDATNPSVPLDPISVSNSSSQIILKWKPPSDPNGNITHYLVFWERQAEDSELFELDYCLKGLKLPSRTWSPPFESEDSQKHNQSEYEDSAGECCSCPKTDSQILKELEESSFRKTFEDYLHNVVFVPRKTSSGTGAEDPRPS
T1 sequence (P06213 763-1382 limits assumed): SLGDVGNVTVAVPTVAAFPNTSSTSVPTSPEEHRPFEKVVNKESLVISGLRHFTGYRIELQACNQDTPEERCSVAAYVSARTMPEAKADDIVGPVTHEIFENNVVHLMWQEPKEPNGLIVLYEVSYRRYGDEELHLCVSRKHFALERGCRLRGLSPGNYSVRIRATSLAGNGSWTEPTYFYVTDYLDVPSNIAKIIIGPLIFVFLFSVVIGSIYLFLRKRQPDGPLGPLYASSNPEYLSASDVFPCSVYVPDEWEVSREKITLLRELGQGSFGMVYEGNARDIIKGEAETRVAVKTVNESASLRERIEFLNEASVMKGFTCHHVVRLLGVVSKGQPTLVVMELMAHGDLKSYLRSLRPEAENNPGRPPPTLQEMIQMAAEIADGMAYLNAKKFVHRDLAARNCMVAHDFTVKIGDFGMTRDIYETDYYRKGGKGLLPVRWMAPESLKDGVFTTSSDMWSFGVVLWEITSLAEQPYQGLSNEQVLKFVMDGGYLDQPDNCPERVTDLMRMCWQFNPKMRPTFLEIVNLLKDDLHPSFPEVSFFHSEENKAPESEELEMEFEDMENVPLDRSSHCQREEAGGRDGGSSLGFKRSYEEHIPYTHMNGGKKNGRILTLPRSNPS

% of maximal BRET ([4]; HEK293 cells co-expressing IR-Rluc and IRS1-YFP, single treatment 60 min, 37°C, maximal BRET increase of dose-response, % of insulin's response taken as 100%, mean ± SD of four independent experiments in triplicate): 13 ± 1^c %
BRET, % of the maximal response of insulin, Average ([4]; peptide 0.001 mg/ml, 37°C): 10.7
BRET, % of the maximal response of insulin, Average ([4]; peptide 0.005 mg/ml, 37°C): 9.6
BRET, % of the maximal response of insulin, Average ([4]; peptide 0.01 mg/ml, 37°C): 15.8
BRET, % of the maximal response of insulin, Average ([4]; peptide 0.05 mg/ml, 37°C): 14.2
BRET, % of the maximal response of insulin, Average ([4]; peptide 0.1 mg/ml, 37°C): 10.1
BRET, % of the maximal response of insulin, Average ([4]; peptide 0.5 mg/ml, 37°C): 15.2
BRET, % of the maximal response of insulin, Average ([4]; peptide 1 mg/ml, 37°C): 10.9
Substance: MPVQA [Peptide P4]
glucose uptake, specific luminescence signal, Average (HepG2 cells; Average of Experiments 1-5, HepG2, 0.1 mg/ml peptide or 1 μM insulin, minimal data set for Figure 5): 1978100
% of glucose uptake (HepG2 cells; HepG2 cells, 0.1 mg/ml peptide or 1 μM insulin, % of insulin's response taken as 100%, mean ± SD of five independent experiments in triplicate): 78 ± 18^b %
insulin-induced BRET, % of insulin's response in the vehicle, Average ([1]; Average of Experiments 1-7, 1 μM insulin + 0.1 mg/ml peptide, HEK293, minimal data set for Figure 2): 113.5
insulin-induced BRET, % of insulin's response in the vehicle ([1]; Experiment 1, 1 μM insulin + 0.1 mg/ml peptide, HEK293, minimal data set for Figure 2): 76.2
insulin-induced BRET, % of insulin's response in the vehicle ([1]; Experiment 2, 1 μM insulin + 0.1 mg/ml peptide, HEK293, minimal data set for Figure 2): 79.6
insulin-induced BRET, % of insulin's response in the vehicle ([1]; Experiment 3, 1 μM insulin + 0.1 mg/ml peptide, HEK293, minimal data set for Figure 2): 121.9
insulin-induced BRET, % of insulin's response in the vehicle ([1]; Experiment 4, 1 μM insulin + 0.1 mg/ml peptide, HEK293, minimal data set for Figure 2): 113.1
insulin-induced BRET, % of insulin's response in the vehicle ([1]; Experiment 5, 1 μM insulin + 0.1 mg/ml peptide, HEK293, minimal data set for Figure 2): 93.8
insulin-induced BRET, % of insulin's response in the vehicle ([1]; Experiment 6, 1 μM insulin + 0.1 mg/ml peptide, HEK293, minimal data set for Figure 2): 168.9
insulin-induced BRET, % of insulin's response in the vehicle ([1]; Experiment 7, 1 μM insulin + 0.1 mg/ml peptide, HEK293, minimal data set for Figure 2): 141.2
% of maximal BRET (insulin-induced) ([1]; HEK293 cells, 1 μM insulin + 0.1 mg/ml peptide, 1 hour, 37°C, % of insulin's response in the vehicle taken as 100%, mean ± SD of five to seven independent experiments in triplicate): 114 ± 13^a %
profile on insulin-dependent BRET response in combined treatment (in words) ([1]; HEK293 cells, 0.1 mg/ml peptide + 1 μM insulin, compared to insulin alone (Vehicle)): non-efficient
IR phosphorylation, single treatment (in words) [2]: led to IR and AKT phosphorylation
AKT phosphorylation, single treatment (in words) [3]: led to IR and AKT phosphorylation
BRET increase in single treatment (in words) ([4]; HEK293 cells, peptides applied alone): did not promote any significant BRET increase
